Test results from PubChem BioAssay (NCI).
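All cell lines were grown in 96-well plates and treated with compound for 48 hours. GI50: concentration for 50% inhibition of growth. TGI: total growth inhibition.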

Legend:
Assay in all cases: NCI-60 cell line screen, 48 h
MALME-3M melanoma = test system: MALME-3M melanoma
HOP-92 NSCLC = test system: HOP-92 NSCLC
SN12C renal = test system: SN12C renal
SK-MEL-5 melanoma = test system: SK-MEL-5 melanoma
786-0 renal = test system: 786-0 renal
KM12 colon = test system: KM12 colon
PC-3 prostate = test system: PC-3 prostate
SK-MEL-2 melanoma = test system: SK-MEL-2 melanoma
RXF 393 renal = test system: RXF 393 renal
OVCAR-3 ovarian = test system: OVCAR-3 ovarian
HL-60(TB) leukemia = test system: HL-60(TB) leukemia
SW-620 colon = test system: SW-620 colon
OVCAR-8 ovarian = test system: OVCAR-8 ovarian
UACC-62 melanoma = test system: UACC-62 melanoma
ACHN renal = test system: ACHN renal
IGROV1 ovarian = test system: IGROV1 ovarian
HCT-15 colon = test system: HCT-15 colon
SF-268 CNS = test system: SF-268 CNS
LOX IMVI melanoma = test system: LOX IMVI melanoma
RPMI-8226 leukemia = test system: RPMI-8226 leukemia
HCT-116 colon = test system: HCT-116 colon
MDA-MB-435 = test system: MDA-MB-435
CCRF-CEM leukemia = test system: CCRF-CEM leukemia
M14 melanoma = test system: M14 melanoma
DU-145 prostate = test system: DU-145 prostate
SF-539 CNS = test system: SF-539 CNS
SNB-19 CNS = test system: SNB-19 CNS
SNB-75 CNS = test system: SNB-75 CNS
MOLT-4 leukemia = test system: MOLT-4 leukemia
NCI-H226 lung = test system: NCI-H226 lung
MCF7 breast = test system: MCF7 breast
OVCAR-5 ovarian = test system: OVCAR-5 ovarian
NCI-H460 lung = test system: NCI-H460 lung
SK-MEL-28 melanoma = test system: SK-MEL-28 melanoma
HS 578T breast = test system: HS 578T breast
TK-10 renal = test system: TK-10 renal
CAKI-1 renal = test system: CAKI-1 renal
T-47D breast = test system: T-47D breast
SR leukemia = test system: SR leukemia
UO-31 renal = test system: UO-31 renal
A549 NSCLC = test system: A549 NSCLC
SF-295 CNS = test system: SF-295 CNS
NCI/ADR-RES ovarian = test system: NCI/ADR-RES ovarian
NCI-H522 lung = test system: NCI-H522 lung
BT-549 breast = test system: BT-549 breast
A498 renal = test system: A498 renal
OVCAR-4 ovarian = test system: OVCAR-4 ovarian
HCC-2998 colon = test system: HCC-2998 colon
MDA-MB-231 breast = test system: MDA-MB-231 breast
EKVX NSCLC = test system: EKVX NSCLC
HOP-62 NSCLC = test system: HOP-62 NSCLC
K-562 leukemia = test system: K-562 leukemia
SK-OV-3 ovarian = test system: SK-OV-3 ovarian
UACC-257 melanoma = test system: UACC-257 melanoma
COLO 205 colon = test system: COLO 205 colon
U251 CNS = test system: U251 CNS
NCI-H23 lung = test system: NCI-H23 lung
HT29 colon = test system: HT29 colon

Structure (SMILES): Cc1c(N(C(=O)c2cc(-c3cc(Cl)ccc3C(=O)N3Cc4ccccc4C[C@H]3CN3CCOCC3)n(C)c2C)c2ccc(O)cc2)cc(C#N)n1C
- GI50 (MALME-3M melanoma): 20.8 µM
- TGI (MALME-3M melanoma): 64.3 µM
- GI50 (HOP-92 NSCLC): 5.24 µM
- TGI (HOP-92 NSCLC): 22.6 µM
- GI50 (SN12C renal): 19.5 µM
- TGI (SN12C renal): > 100 µM
- GI50 (SK-MEL-5 melanoma): 14.6 µM
- TGI (SK-MEL-5 melanoma): 36.9 µM
- GI50 (786-0 renal): 12.5 µM
- TGI (786-0 renal): 36.8 µM
- GI50 (KM12 colon): 51 µM
- TGI (KM12 colon): > 100 µM
- GI50 (PC-3 prostate): 11.3 µM
- TGI (PC-3 prostate): > 100 µM
- GI50 (SK-MEL-2 melanoma): 11.8 µM
- TGI (SK-MEL-2 melanoma): 30.7 µM
- GI50 (RXF 393 renal): 3.88 µM
- TGI (RXF 393 renal): 17.6 µM
- GI50 (OVCAR-3 ovarian): 11 µM
- TGI (OVCAR-3 ovarian): > 100 µM
- GI50 (HL-60(TB) leukemia): 2.38 µM
- TGI (HL-60(TB) leukemia): 29.1 µM
- GI50 (SW-620 colon): 34.4 µM
- TGI (SW-620 colon): > 100 µM
- GI50 (OVCAR-8 ovarian): 55.8 µM
- TGI (OVCAR-8 ovarian): > 100 µM
- GI50 (UACC-62 melanoma): 20.6 µM
- TGI (UACC-62 melanoma): > 100 µM
- GI50 (ACHN renal): 23.6 µM
- TGI (ACHN renal): > 100 µM
- GI50 (IGROV1 ovarian): 23.8 µM
- TGI (IGROV1 ovarian): > 100 µM
- GI50 (HCT-15 colon): 16.6 µM
- TGI (HCT-15 colon): > 100 µM
- GI50 (SF-268 CNS): 20.5 µM
- TGI (SF-268 CNS): > 100 µM
- GI50 (LOX IMVI melanoma): 14.6 µM
- TGI (LOX IMVI melanoma): > 100 µM
- GI50 (RPMI-8226 leukemia): 7.32 µM
- TGI (RPMI-8226 leukemia): > 100 µM
- GI50 (HCT-116 colon): 7.66 µM
- TGI (HCT-116 colon): > 100 µM
- GI50 (MDA-MB-435): 16.5 µM
- TGI (MDA-MB-435): 40.7 µM
- GI50 (CCRF-CEM leukemia): 8.02 µM
- TGI (CCRF-CEM leukemia): > 100 µM
- GI50 (M14 melanoma): 21.8 µM
- TGI (M14 melanoma): > 100 µM
- GI50 (DU-145 prostate): 32.5 µM
- TGI (DU-145 prostate): > 100 µM
- GI50 (SF-539 CNS): 20.6 µM
- TGI (SF-539 CNS): > 100 µM
- GI50 (SNB-19 CNS): 13.8 µM
- TGI (SNB-19 CNS): > 100 µM
- GI50 (SNB-75 CNS): 9.79 µM
- TGI (SNB-75 CNS): 30.9 µM
- GI50 (MOLT-4 leukemia): 2.98 µM
- TGI (MOLT-4 leukemia): > 100 µM
- GI50 (NCI-H226 lung): 14.1 µM
- TGI (NCI-H226 lung): 44.4 µM
- GI50 (MCF7 breast): 23.5 µM
- TGI (MCF7 breast): > 100 µM
- GI50 (OVCAR-5 ovarian): 44.9 µM
- TGI (OVCAR-5 ovarian): > 100 µM
- GI50 (NCI-H460 lung): 31.3 µM
- TGI (NCI-H460 lung): > 100 µM
- GI50 (SK-MEL-28 melanoma): 31.3 µM
- TGI (SK-MEL-28 melanoma): > 100 µM
- GI50 (HS 578T breast): 19 µM
- TGI (HS 578T breast): 75.3 µM
- GI50 (TK-10 renal): 12.8 µM
- TGI (TK-10 renal): 78 µM
- GI50 (CAKI-1 renal): 6.35 µM
- TGI (CAKI-1 renal): > 100 µM
- GI50 (T-47D breast): 7.09 µM
- TGI (T-47D breast): > 100 µM
- GI50 (SR leukemia): 6.25 µM
- TGI (SR leukemia): > 100 µM
- GI50 (UO-31 renal): 15.6 µM
- TGI (UO-31 renal): > 100 µM
- GI50 (A549 NSCLC): 27.6 µM
- TGI (A549 NSCLC): > 100 µM
- GI50 (SF-295 CNS): 13.2 µM
- TGI (SF-295 CNS): > 100 µM
- GI50 (NCI/ADR-RES ovarian): 50.6 µM
- TGI (NCI/ADR-RES ovarian): > 100 µM
- GI50 (NCI-H522 lung): 20.4 µM
- TGI (NCI-H522 lung): > 100 µM
- GI50 (BT-549 breast): 6.41 µM
- TGI (BT-549 breast): 26.5 µM
- GI50 (A498 renal): 23.2 µM
- TGI (A498 renal): 61.6 µM
- GI50 (OVCAR-4 ovarian): 11.4 µM
- TGI (OVCAR-4 ovarian): > 100 µM
- GI50 (HCC-2998 colon): 15.1 µM
- TGI (HCC-2998 colon): 44.9 µM
- GI50 (MDA-MB-231 breast): 20.2 µM
- TGI (MDA-MB-231 breast): > 100 µM
- GI50 (EKVX NSCLC): 48.4 µM
- TGI (EKVX NSCLC): > 100 µM
- GI50 (HOP-62 NSCLC): 25.8 µM
- TGI (HOP-62 NSCLC): > 100 µM
- GI50 (K-562 leukemia): 10.8 µM
- TGI (K-562 leukemia): > 100 µM
- GI50 (SK-OV-3 ovarian): 17.9 µM
- TGI (SK-OV-3 ovarian): > 100 µM
- GI50 (UACC-257 melanoma): 20.1 µM
- TGI (UACC-257 melanoma): > 100 µM
- GI50 (COLO 205 colon): 17.1 µM
- TGI (COLO 205 colon): 35.2 µM
- GI50 (U251 CNS): 18.9 µM
- TGI (U251 CNS): > 100 µM
- GI50 (NCI-H23 lung): 35.6 µM
- TGI (NCI-H23 lung): > 100 µM
- GI50 (HT29 colon): 18.7 µM
- TGI (HT29 colon): > 100 µM
